# Measured values from patent US8399462B2, “JNK modulators” (Roche Palo Alto LLC, priority 2006, dated 2013).
row,melting point [°C],Compound
1,92 to 93,"COC[C@@H]1CCCN1C(=O)[C@H]1CC[C@H](Nc2nccc(-n3ccc4c(OCCCS(C)(=O)=O)cccc43)n2)CC1 (stereo in doubt) [Compound 266, (4-{4-[4-(3-methane-sulfonyl-propoxy)-indol-1-yl]-pyrimidin-2-ylamino}-cyclohexyl)-(2-methoxymethyl-pyrrolidin-1-yl)-methanone]"
2,230 to 231,"C[C@@H]1CC[C@@H](C)N1C(=O)[C@H]1CC[C@H](Nc2nccc(-n3ncc4c(OCCCS(N)(=O)=O)cccc43)n2)CC1 (stereo in doubt) [Compound 271, 3-(1-{2-[4-(2,5-di-methyl-pyrrolidine-1-carbonyl)-cyclohexyl-amino]-pyrimidin-4-yl}-1H-indazol4-yloxy)-propane-1-sulfonic acid amide]"
3,230 to 231,"C[C@@H]1CCCN1C(=O)[C@H]1CC[C@H](Nc2nccc(-n3ncc4c(OCCCS(N)(=O)=O)cccc43)n2)CC1 (stereo in doubt) [Compound 272, 3-(1-{2-[4-(2-methyl-pyrrolidine-1-carbonyl)-cyclohexylamino]-pyrimidin-4-yl}-1H-indazol4-yloxy)-propane-1-sulfonic acid amide]"
4,230 to 231,"C[C@H]1CCCN1C(=O)[C@H]1CC[C@H](Nc2nccc(-n3ncc4c(OCCCS(N)(=O)=O)cccc43)n2)CC1 (stereo in doubt) [Compound 273, 3-(1-{2-[4-(2-methyl-pyrrolidine-1-carbonyl)-cyclohexylamino]-pyrimidin-4-yl}-1H-indazol-4-yloxy)-propane-1-sulfonic acid amide]"
5,221.8 to 223,O=[N+]([O-])c1ccc2cnn(-c3ccnc(N[C@H]4CC[C@H](O)CC4)n3)c2c1 [Compound 27]
6,206.7 to 208.3,"COC(=O)c1cccc2c1ccn2-c1ccnc(N[C@H]2CC[C@H](O)CC2)n1 [Compound 37, 1-[2-(4-hydroxycyclo-hexylamino)-pyrimidin-4-yl]-1H-indole-4-carboxylic acid methyl ester]"
7,270.1 to 273.3,"N[C@H]1CC[C@H](Nc2nccc(-n3ccc4ccccc43)n2)CC1 [Compound 52, N-(4-indol-1-yl-pyrimidin-2-yl)-cyclo-hexane-1,4-diamine]"
8,192.5 to 193,"c1ccc2c(c1)ccn2-c1ccnc(NC2CCCCC2)n1 [Compound 66, Cyclohexyl-(4-indol-1-ylpyrimidin-2-yl)amine]"
9,180 to 183.3,"Cn1nc(-c2ccnc(N[C@H]3CC[C@H](O)CC3)n2)c2ccccc21 [Compound 77, 4-[4-(1-methyl-1H-indazol-3-yl)pyridimidin-2-ylamino]-cyclo-hexanol]"
10,243.3 to 244.9,"COc1cccc2c(-c3ccnc(N[C@H]4CC[C@H](O)CC4)n3)n[nH]c12 [Compound 80, 4-[4-(7-methoxy-1H-indazol-3-yl)-pyrimidin-2-ylamino]-cyclo-hexanol]"
11,172 to 173.9,"O[C@H]1CC[C@H](Nc2nccc(-c3noc4ccc(F)cc34)n2)CC1 [Compound 83, 4-[4-(5-fluorobenzo[d]-isoxazol-3-yl)-pyrimidin-2-ylamino]-cyclohexanol]"
12,216.5 to 218.5,"OCCOc1ccc2cnn(-c3ccnc(N[C@H]4CC[C@H](O)CC4)n3)c2c1 [Compound 89, 4-{4-[6-(2-hydroxy-ethoxy)-indazol-1-yl]-pyrimidin-2-ylamino}-cyclohexanol]"
13,208.2 to 210.2,"OCCOc1cccc2c1cnn2-c1ccnc(N[C@H]2CC[C@H](O)CC2)n1 [Compound 90, 4-{4-[4-(2-hydroxy-ethoxy)-indazol-1-yl]-pyrimidin-2-ylamino}-cyclohexanol]"
14,256.9 to 259.9,"COc1cccc2c1cnn2-c1ccnc(NC2CCC(NC(C)=O)CC2)n1 (stereo not drawn) [Compound 91, N-{4-[4-(4-methoxy-indazol-1-yl]-pyrimidin-2-ylamino}-cyclohexane}-acetamide]"
15,235.8 to 236.2,"CN(c1cccc2c1ccn2-c1ccnc(N[C@H]2CC[C@H](O)CC2)n1)S(C)(=O)=O [Compound 92, N-{1-[2-(4-hydroxy-cyclohexylamino)-pyrimidin-4-yl]-1H-indol-4-yl}-N-methyl-methanesulfonamide]"
16,223.8 to 224.7,"OCC(O)COc1ccc2cnn(-c3ccnc(N[C@H]4CC[C@H](O)CC4)n3)c2c1 (stereo partly drawn) [Compound 93, 3-{1-[2-(4-hydroxy-cyclohexylamino)-pyrimidin-4-yl]-1H-indazol-6-yloxy}-propane-1,2-diol]"
17,> 300,"O[C@H]1CC[C@H](Nc2nccc(-n3ncc4c(OCC5CC5)cccc43)n2)CC1 [Compound 94, 4-[4-(4-cyclopropyl-methoxy-indazol-1-yl)-pyrimidin-2-ylamino]-cyclohexanol]"
18,220 to 222.3,"O=C(COc1cccc2c1cnn2-c1ccnc(N[C@H]2CC[C@H](O)CC2)n1)N[C@H]1CC[C@H](O)CC1 [Compound 95, N-(4-hydroxy-cyclo-hexyl)-2-{1-[2-(4-hydroxy-cyclohexyl-amino)-pyrimidin-4-yl]-1H-indazol-4-yloxy}-acetamide]"

row,melting point [°C],Compound
1,240.2 to 240.8,"CS(=O)(=O)Nc1cccc2c1ccn2-c1ccnc(N[C@H]2CC[C@H](O)CC2)n1 [Compound 97, N-{1-[2-(4-hydroxy-cyclohexylamino)-pyrimidin-4-yl]-1H-indol-4-yl}-N-methane-sulfonamide]"
2,170.2 to 174.4,"CCc1cccc2c1cnn2-c1ccnc(N[C@H]2CC[C@H](O)CC2)n1 [Compound 99, 4-[4-(4-ethylindazol-1-yl)-pyrimidin-2-yl-amino]-cyclohexanol]"
3,132 to 133,"CNC(=O)OCc1cccc2c1ccn2-c1ccnc(N[C@H]2CC[C@H](O)CC2)n1 [Compound 100, Methyl-carbamic acid 1-[2-(4-hydroxy-cyclo-hexylamino)-pyrimidin-4-yl]-1H-indol-4-ylmethyl ester]"
4,207 to 209,"N#CCc1cccc2c1ccn2-c1ccnc(N[C@H]2CC[C@H](O)CC2)n1 [Compound 101, {1-[2-(4-hydroxy-cyclo-hexylamino)-pyrimidin-4-yl]-1H-indol-4-yl}-acetonitrile]"
5,134.8 to 137.3,"COCc1cccc2c1ccn2-c1ccnc(N[C@H]2CC[C@H](O)CC2)n1 [Compound 102, 4-[4-(4-methoxymethyl-indol-1-yl)-pyrimidin-2-ylamino]-cyclohexanol]"
6,202.5 to 203.6,"O[C@H]1CC[C@H](Nc2nccc(-n3ncc4c(OCc5ccccn5)cccc43)n2)CC1 [Compound 103, 4-{4-[4-(pyridine-2-yl-methoxy)-indazol-1-yl]-pyrimidin-2-ylamino}-cyclohexanol]"
7,278.8 to 280,"COc1cccc2c1cnn2-c1ccnc(N[C@H]2CC[C@H](C(=O)N(C)C)CC2)n1 [Compound 105, 4-[4-(4-methoxyindazol-1-yl)-pyrimidin-2-ylamino]-cyclo-hexanecarboxylic acid dimethylamide]"
8,251.7 to 253,"O=C1c2ccccc2C(=O)N1Cc1cccc2c1ccn2-c1ccnc(N[C@H]2CC[C@H](O)CC2)n1 [Compound 106, 2-{1-[2-(4-hydroxy-cyclohexylamino)-pyrimidin-4-yl]-1H-indol-4-ylmethyl}-isoindole-1,3-dione]"
9,208 to 210,"CC(C)(O)c1cccc2c1ccn2-c1ccnc(N[C@H]2CC[C@H](C(=O)NCCS(C)(=O)=O)CC2)n1 [Compound 107, 4-{4-[4-(1-hydroxy-1-methylethyl)-indol-1-yl]-pyrimidin-2-yl-amino}-cyclohexane-carboxylic acid (2-methanesulfonyl-ethyl)-amide]"
10,193.3 to 194.6,"CCS(=O)(=O)Cc1cccc2c1ccn2-c1ccnc(N[C@H]2CC[C@H](O)CC2)n1 [Compound 108, 4-[4-(4-ethanesulfonyl-methyl-indol-1-yl)-pyrimidin-2-ylamino]-cyclohexanol]"
11,172 to 173.6,"CC(=O)N[C@H]1CC[C@H](Nc2nccc(-n3ccc4c(C(C)(C)O)cccc43)n2)CC1 [Compound 109, N-(4-{4-[4-(1-hydroxy-1-methylethyl)-indol-1-yl]-pyrimidin-2-yl-amino}-cyclohexyl)-acetamide]"
12,235 to 235.5,"CS(=O)(=O)N[C@H]1CC[C@H](Nc2nccc(-n3ccc4c(CC#N)cccc43)n2)CC1 [Compound 110, N-{4-[4-(4-cyano-methyl-indol-1-yl)-pyrimidin-2ylamino]-cyclohexyl}-methane-sulfonamide]"
13,226 to 227,"CNC(=O)COc1cccc2c1cnn2-c1ccnc(N[C@H]2CC[C@H](O)CC2)n1 [Compound 112, 2-{1-[2-(4-hydroxy-cyclohexylamino)-pyrimidin-4-yl]-1H-indazol-4-yloxy}-N-methyl-acetamide]"
14,136 to 137.5,"N#CCc1cccc2c1ccn2-c1ccnc(N[C@H]2CC[C@H](C(=O)N3CCCC3)CC2)n1 [Compound 114, (1-{2-[4-(pyrrolidino-1-carbonyl)-cyclohexyl-amino]-pyrimidin-4-yl}-1H-indol-4-yl)-acetonitrile]"
15,270 to 270.5,"CS(=O)(=O)N[C@H]1CC[C@H](Nc2ncc(F)c(-n3ccc4ccccc43)n2)CC1 [Compound 115, N-[4-(5-fluoro-4-indol-1-yl-pyrimidin-2-ylamino)-cyclohexyl]-methanesulfonamide]"
16,207.8 to 209.8,"CC(C)(O)c1cccc2c1ccn2-c1ccnc(N[C@H]2CC[C@H](C(=O)N3CCCC3)CC2)n1 [Compound 116, (4-{4-[4-(1-hydroxy-1-methylethyl)-indol-1-yl]-pyrimidin-2-yl-amino}-cyclohexyl)-pyrrolidin-1-yl-methanone]"
17,247 to 249.6,"CC(C)(O)c1cccc2c1ccn2-c1ccnc(N[C@H]2CC[C@H](NS(C)(=O)=O)CC2)n1 [Compound 117, N-(4-{4-[4-(1-hydroxy-1-methylethyl)-indol-1-yl]-pyrimidin-2-yl-amino}-cyclohexyl)-methanesulfonamide]"
18,203.8 to 204.9,"CS(=O)(=O)N[C@H]1CC[C@H](Nc2ncc(Cl)c(-n3ccc4ccccc43)n2)CC1 [Compound 118, N-[4-(5-chloro-4-indol-1-ylpyrimidin-2-yl-amino)-cyclohexyl]-methanesulfonamide]"
